Target: T1, rhDectin-2 (Homo sapiens, UniProt Q6EIG7)
T1 sequence (Q6EIG7 42-209 limits assumed): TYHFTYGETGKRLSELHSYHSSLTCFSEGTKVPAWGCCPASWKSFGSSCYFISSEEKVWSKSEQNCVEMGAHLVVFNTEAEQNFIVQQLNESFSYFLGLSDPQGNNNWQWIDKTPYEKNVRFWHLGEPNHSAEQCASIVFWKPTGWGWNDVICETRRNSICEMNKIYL
Assay: biolayer interferometry
Assay type: binding

Kd: 13.6 µM
SMILES: C=CCO[C@H]1O[C@H](CO)[C@@H](OP(=O)(O)O[C@H]2O[C@H](CO)[C@@H](O)[C@H](O)[C@@H]2O)[C@H](O)[C@@H]1O [compound 7, Allyl α-D-mannopyranoside α-D-mannopyranosyl-4-sodium phosphate]

— article PMC10957239 (Carbohydrate research, 2024)
